Source: US20230293526A1, “METHOD FOR TREATING CANCER WITH A REVERSE TRANSCRIPTASE INHIBITOR” (PrimeFour Therapeutics, Inc., priority 2020, published 2023)

Test system: cancer cell lines
Experiment: Cancer cell proliferation activity of representative nucleosides, CellTiterGlo 72 h (Example 7, Tables 8 and 9)
Type: cell-based
Conditions: 72 h
Description: Dose response relationships on cell proliferation was assessed for representative nucleosides on cancer cell lines. Briefly, compound treatment of cells started one day after seeding with a final DMSO concentration of 0.1%, and was performed by nanodrop-dispensing using a Tecan Dispenser. 0.1% DMSO (solvent) and Staurosporine (10 μM) served as high control (100% viability) and low control (0% viability), respectively. Cells were cultured in the appropriate media. For the assays, cells were seeded in white cell culture-treated flat and clear bottom multiwell plates and incubated at 37° C. overnight before compound was added. After incubation for 72 h at 37° C. at 5% or 10% CO2 dependent on the medium, cell plates were equilibrated to room temperature for one hour, CellTiterGlo reagent (Promega) was added and luminescence was measured approximately an hour later using a luminometer.
Raw data were converted into percent cell viability relative to the high and low control, which were set to 100% and 0%, respectively.

In the case of `C[C@]1(CO)O[C@@H](n2ccc(N)nc2=O)C[C@@H]1O` [compound 30], the IC50 (72 h, 5637, bladder) is reported as 180 nM, the IC50 (CLS439, bladder) is reported as 2650 nM and the IC50 (HS729, muscle) is reported as 370 nM. It also gave an IC50 (J82, bladder) of 640 nM, an IC50 (JAR, placenta) of 5240 nM and an IC50 (MT3, breast) of 50 nM. For the same compound, the IC50 (PC3, prostate) was 150 nM, the IC50 (RD, muscle) was 790 nM and the IC50 (T24, bladder) was 80 nM. It also gave an IC50 (Homo sapiens, 22Rv1, 72 h, 22RV1, prostate) of 1350 nM, an IC50 (Homo sapiens, 786-0, 72 h, 786O, kidney) of 380 nM and an IC50 (Homo sapiens, A204, 72 h, A204, muscle) of 20 nM. For the same compound, the IC50 (Homo sapiens, A549, 72 h, A549, lung) was 320 nM, the IC50 (Homo sapiens, A673, 72 h, A673, bone) was 500 nM and the IC50 (Homo sapiens, A2780, 72 h, A2780, ovary) was 250 nM. For the same compound, the IC50 (Homo sapiens, A-375, 72 h, A375, skin) was 330 nM, the IC50 (Homo sapiens, A-431, 72 h, A431, skin) was 280 nM and the IC50 (Homo sapiens, ACHN, kidney) was 340 nM. For the same compound, the IC50 (Homo sapiens, ASPC1, 72 h, ASPC1, pancreas) was 130 nM, the IC50 (Homo sapiens, BT-20, 72 h, BT20, breast) was 670 nM and the IC50 (Homo sapiens, BXPC-3, 72 h, BXPC3, pancreas) was 130 nM. For the same compound, the IC50 (Homo sapiens, C-33-A, C33A, endometrial) was 190 nM, the IC50 (Homo sapiens, CAKI-1, 72 h, CAKI1, kidney) was 70 nM and the IC50 (Homo sapiens, COLO 205, 72 h, COLO205, colon) was 160 nM. The IC50 (Homo sapiens, COLO-678, 72 h, COLO678, colon) was 1710 nM, the IC50 (Homo sapiens, Ca-Ski, CASKI, endometrial) was 1280 nM and the IC50 (Homo sapiens, Caco-2, 72 h, CACO2, colon) was 2960 nM. It also gave an IC50 (Homo sapiens, Calu-6, 72 h, CALU6, lung) of 500 nM, an IC50 (Homo sapiens, DLD-1, 72 h, DLD1, colon) of 580 nM and an IC50 (Homo sapiens, DU-145, 72 h, DU145, prostate) of 280 nM. The IC50 (Homo sapiens, EFO-21, 72 h, EFO21, ovary) was 450 nM, the IC50 (Homo sapiens, EJ-28, 72 h, EJ28, bladder) was 1020 nM and the IC50 (Homo sapiens, Granta-519, 72 h, GRANTA-519, hematological) was 80 nM. The IC50 (Homo sapiens, HCT-15, 72 h, HCT15, colon) was 540 nM, the IC50 (Homo sapiens, HCT-116, 72 h, HCT116, colon) was 310 nM and the IC50 (Homo sapiens, HEK293, 72 h, HEK293, kidney) was 10900 nM. The IC50 (Homo sapiens, HL-60, 72 h, HL-60, hematological) was 360 nM, the IC50 (Homo sapiens, HT-29, 72 h, HT29, colon) was 410 nM and the IC50 (Homo sapiens, HT-1080, 72 h, HT1080, connective tissue) was 270 nM. The IC50 (Homo sapiens, HeLa, endometrial) was 330 nM, the IC50 (Homo sapiens, HepG2, 72 h, HEPG2, liver) was 1300 nM and the IC50 (Homo sapiens, Hs-578T, HS578T, breast) was 920 nM. The IC50 (Homo sapiens, IGROV-1, 72 h, IGROV1, ovary) was 520 nM, the IC50 (Homo sapiens, IMR-90, 72 h, IMR90, lung) was 2120 nM and the IC50 (Homo sapiens, JEG-3, 72 h, JEG3, placenta) was 1250 nM. For the same compound, the IC50 (Homo sapiens, JIMT-1, 72 h, JIMT1, breast) was 80 nM, the IC50 (Homo sapiens, K562, 72 h, K-562, hematological) was 1440 nM and the IC50 (Homo sapiens, Kasumi 1, 72 h, KASUMI-1, hematological) was 80 nM. The IC50 (Homo sapiens, L-363, 72 h, L-363, hematological) was greater than 50000 nM, the IC50 (Homo sapiens, LoVo, colon) was 340 nM and the IC50 (Homo sapiens, MCF7, 72 h, MCF7, breast) was 1960 nM. For the same compound, the IC50 (Homo sapiens, MDA-MB-231, 72 h, MDAMB231, breast) was 50 nM, the IC50 (Homo sapiens, MDA-MB-435, 72 h, MDAMB435, skin) was 820 nM and the IC50 (Homo sapiens, MDA-MB-436, 72 h, MDAMB436, breast) was 310 nM. It also gave an IC50 (Homo sapiens, MDA-MB-468, 72 h, MDAMB468, breast) of 290 nM, an IC50 (Homo sapiens, MG-63, 72 h, MG63, bone) of 380 nM and an IC50 (Homo sapiens, MHH-ES-1, 72 h, MHHES1, bone) of 720 nM. It also gave an IC50 (Homo sapiens, MIA PaCa-2, 72 h, MIAPACA2, pancreas) of 540 nM, an IC50 (Homo sapiens, MINO, hematological) of 80 nM and an IC50 (Homo sapiens, MV4-11, 72 h, MV4-11, hematological) of 570 nM. It also gave an IC50 (Homo sapiens, NCI-H23, 72 h, NCI-H23, lung) of 330 nM, an IC50 (Homo sapiens, NCI-H82, 72 h, NCIH82, lung) of 2530 nM and an IC50 (Homo sapiens, NCI-H292, 72 h, NCIH292, lung) of 280 nM. For the same compound, the IC50 (Homo sapiens, NCI-H460, 72 h, NCIH460, ung) was 420 nM, the IC50 (Homo sapiens, OVCAR-3, 72 h, OVCAR3, ovary) was 380 nM and the IC50 (Homo sapiens, OVCAR-4, 72 h, OVCAR4, ovary) was 1050 nM. For the same compound, the IC50 (Homo sapiens, PANC-1, 72 h, PANC1, pancreas) was 1150 nM, the IC50 (Homo sapiens, PLC-PRF-5, 72 h, PLCPRF5, liver) was 2160 nM and the IC50 (Homo sapiens, Panc1005, 72 h, PANC1005, pancreas) was 430 nM. It also gave an IC50 (Homo sapiens, Ramos, hematological) of 110 nM, an IC50 (Homo sapiens, SAOS-2, 72 h, SAOS2, bone) of 80 nM and an IC50 (Homo sapiens, SF-268, 72 h, SF268, brain) of 150 nM. For the same compound, the IC50 (Homo sapiens, SF-295, 72 h, SF295, brain) was 730 nM, the IC50 (Homo sapiens, SK-BR-3, 72 h, SKBR3, breast) was 190 nM and the IC50 (Homo sapiens, SK-HEP1, 72 h, SKHEP1, liver) was 120 nM. For the same compound, the IC50 (Homo sapiens, SK-LMS-1, 72 h, SKLMS1, uterus) was 1350 nM, the IC50 (Homo sapiens, SK-MEL-5, 72 h, SKMEL5, skin) was 3650 nM and the IC50 (Homo sapiens, SK-MEL-28, 72 h, SKMEL28, skin) was 1180 nM. For the same compound, the IC50 (Homo sapiens, SK-N-AS, SKNAS, brain) was 1410 nM, the IC50 (Homo sapiens, SK-N-SH, SKNSH, brain) was greater than 50000 nM and the IC50 (Homo sapiens, SK-OV-3, 72 h, SKOV3, ovary) was 280 nM. The IC50 (Homo sapiens, SNB-75, 72 h, SNB75, brain) was 830 nM, the IC50 (Homo sapiens, SU-DHL10, 72 h, SU-DHL-10, hematological) was 360 nM and the IC50 (Homo sapiens, SU-DHL-6, 72 h, SU-DHL-6, hematological) was 330 nM. For the same compound, the IC50 (Homo sapiens, SW-620, 72 h, SW620, colon) was 650 nM, the IC50 (Homo sapiens, TE-671, 72 h, TE671, muscle) was 440 nM and the IC50 (Homo sapiens, THP-1, 72 h, THP-1, hematological) was 1230 nM. For the same compound, the IC50 (Homo sapiens, U2OS, bone) was 670 nM, the IC50 (Homo sapiens, U-87 MG, U87MG, brain) was 330 nM and the IC50 (Homo sapiens, UMUC3, 72 h, UMUC3, bladder) was 560 nM. It also gave an IC50 (Homo sapiens, UO-31, 72 h, UO31, kidney) of 150 nM, an IC50 (Homo sapiens, WSU-NHL, hematological) of 210 nM and an IC50 (NCI-H358M, NCIH358M, lung) of 50 nM. It also gave an IC50 (PBMC, hematological) of 1030 nM and an IC50 (RD-ES, RDES, bone) of 2200 nM.
